Source: publication PMC9316063, “Chalcones as Anti-Glioblastoma Stem Cell Agent Alone or as Nanoparticle Formulation Using Carbon Dots as Nanocarrier” (Pharmaceutics, 2022)
Where two headings read alike, the source gives them in different places.

Assays:
Format in all cases: cell-based, human
Glio9 = assay: MTS cell viability assay, GSC line Glio9; conditions: 72 h, read-out: Glio9 IC50
From the text: (§1) The generation and characterization of our GSC lines (Glio3, Glio9, Glio38) have been previously described. In brief, following patient consent, the resected tumors were mechanically and enzymatically dissociated, and red blood cells were removed using Red Cell Lysis buffer (SigmaAldrich, St. Louis, MO, USA). Cells were filtered and plated in a 3:1 ratio of Dulbecco’s Modified Eagle’s medium (DMEM): F12 (Gibco, Carlsbad, CA, USA) media supplemented with 1% penicillin and streptomcycin (penn/strep), 20 ng/mL each of human epidermal growth factor and human fibroblast growth factor, and 2% Gem21 NeuroPlex Serum-Free Supplement (Gemini Bioscience, Sacramento, CA, USA); a formulation consistent for the generation of GBM stem cell lines. Both Glio3 and Glio38 were derived from tumors prior to drug or radiation therapy and grow as neurospheres, whereas Glio9 was derived from a recurrent tumor, following chemo and radiotherapy, and grows adherent. The GBM cell line U87 MG (U87), purchased from ATCC (Manassas, VA, USA) and the pediatric GBM cell line SJ-GBM2 was obtained from Children’s Oncology Group. SJ-GBM2 cell line was derived from a child with glioblastoma post therapy and is used as part of a National Cancer Institute pediatric pre-clinical testing program. Both lines were maintained in RPMI media supplemented with 10% FBS and 1% penn/strep. Mesenchymal stem cells (MSCs) originally derived from human bone marrow aspirates were obtained from Thermo Fisher Scientific and maintained in MEM alpha supplemented with 20% FBS and 1% penn/strep. Prior to drug treatment, MSCs were moved to media with 10% FBS. Upon receipt U87, SJ-GBM2 and MSCs were immediately expanded with several aliquots frozen down for future use. These cell lines are not listed on the most recent NCBI database for misidentification and contamination of human cell lines. All cell lines were routinely tested for mycoplasma using LookOut mycoplasma PCR detection kit (Sigma-Aldrich, St. Louis, MO, USA) according to the manufacturer’s instructions and were maintained at 37 °C in a humidified 5% CO2 incubator.
(§2) The chalcones were dissolved in dimethyl sulfoxide (DMSO) at a concentration of 10 mM, vortexed and subsequently diluted to obtain 1 mM and 0.1 mM stock concentrations. C-dot-trans-chalcones were resuspended in supplement-free media (3:1 ratio DMEM/F12 for GSC experiments or RPMI for non-stem cell line experiments). Cell viability in response to drug treatment was determined using CellTiter 96 AQueous One Solution Cell Proliferation Assay, a colorimetric MTS assay kit (Promega, Madison, WI, USA). The GSCs were seeded into 96-well plates using modified neurosphere media containing 5% FBS at a density of 10,000 cells per well. MSCs and U87 cells were plated at 5000 cells/well while SJ-GBM2 cells were plated at 10,000 cells/well. The next day cells were treated with increasing concentrations of chalcones or C-dot-chalcone conjugate. Next, 72 h later, media was aspirated and 100 μL of a 1:5 solution of MTS to cell culture media was added to each well and incubated for 1–4 h. Optical density was measured at 490 nm using BioTek Synergy HT plate reader. Viability of drug treated cells is expressed as the percent viable cells relative to non-treated cells (100% viability). Experiments were done in triplicate.

Glio38 [1] = assay: MTS cell viability assay, GSC line Glio38; conditions: 72 h, read-out: Glio38 IC50
From the text: as §1, §2

Glio3 [2] = assay: MTS cell viability assay, GSC line Glio3; conditions: 72 h, read-out: Glio3 IC50
From the text: as §1, §2

[3] = system: GSC lines Glio3, Glio9 and Glio38; assay: MTS cell viability assay, all three GSC lines together; conditions: for activity against GSCs: at the concentrations tested; for IC50: 72 h
From the text: as §1, §2

[4] = system: mesenchymal stem cells (MSC); assay: MTS cell viability assay, mesenchymal stem cells; conditions: 72 h, estimated, >>10 indicates no cell death observed at any of the concentrations tested
From the text: as §1, §2

Glio38 [5] = assay: Sphere forming assay, Glio38; conditions: 100 nM alone, vs non-treated controls
Method: (§3) The effect of chalcones’ clonogenic growth potential was determined using sphere-forming assays. Glio3 and Glio38 neurosphere cell lines were dissociated using Accutase (Gemini Bioscience, Sacramento, CA, USA), filtered using 40-micron filter and single cells were seeded at approximately 50 cells per well in a 96-well plate. Cells were treated with 0.1, 0.25 or 0.5 μM of chalcone or 0.01, 0.05 or 0.1 μM of C-dot chalcone conjugate on day 0 and spheres were manually counted under microscopy on day 14. All experiments were done in triplicate. Representative images were obtained using EVOS XL Core light microscope (Thermo Fisher Scientific, Waltham, MA, USA).

Glio3 [6] = assay: Sphere forming assay, Glio3; conditions: 100 nM alone, vs non-treated controls
Method: as §3

U87 = assay: MTS cell viability assay, U87; conditions: 72 h
From the text: The generation and characterization of our GSC lines (Glio3, Glio9, Glio38) have been previously described. In brief, following patient consent, the resected tumors were mechanically and enzymatically dissociated, and red blood cells were removed using Red Cell Lysis buffer (SigmaAldrich, St. Louis, MO, USA). Cells were filtered and plated in a 3:1 ratio of Dulbecco’s Modified Eagle’s medium (DMEM): F12 (Gibco, Carlsbad, CA, USA) media supplemented with 1% penicillin and streptomcycin (penn/strep), 20 ng/mL each of human epidermal growth factor and human fibroblast growth factor, and 2% Gem21 NeuroPlex Serum-Free Supplement (Gemini Bioscience, Sacramento, CA, USA); a formulation consistent for the generation of GBM stem cell lines. […]
The chalcones were dissolved in dimethyl sulfoxide (DMSO) at a concentration of 10 mM, vortexed and subsequently diluted to obtain 1 mM and 0.1 mM stock concentrations. […] Cell viability in response to drug treatment was determined using CellTiter 96 AQueous One Solution Cell Proliferation Assay, a colorimetric MTS assay kit (Promega, Madison, WI, USA). […] Optical density was measured at 490 nm using BioTek Synergy HT plate reader. Viability of drug treated cells is expressed as the percent viable cells relative to non-treated cells (100% viability). […]

[7] = Homo sapiens, Mesenchymal stem cells
[8] = Homo sapiens, average of Glio3, Glio9, Glio38, read-out: average IC50 across the 3 GSC lines
[9] = Homo sapiens, in all three GSC lines, read-out: IC50 in all GSC lines (bound stated in text)

Compound | IC50 (Glio9; Homo sapiens, MTS, ±SEM) [µM] | IC50 (Glio38 [1]; Homo sapiens, MTS, ±SEM) [µM] | IC50 (Glio3 [2]; Homo sapiens, MTS, ±SEM) [µM] | IC50 [4, 7] [µM] | further results
Nc1ccc(C(=O)/C=C/c2ccco2)cc1 [Chalcone 3r] | > 10 | > 10 | > 10 | – | –
Nc1ccc(C(=O)C=Cc2ccc(N3CCOCC3)cc2)cc1 [Chalcone 3m] | > 10 | > 10 | > 10 | – | activity against GSCs [3]: neither the morpholino or the methoxymethoxy derivatives were active against GSCs
Nc1ccc(C(=O)/C=C/c2ccc(Cl)cc2)cc1 [Chalcone 3w] | 7 ± 0.3 | 7.9 ± 0.6 | 12.3 ± 1.1 | 80.1 | IC50 [3, 8]: 9.1 µM; IC50 [3, 9]: < 15 µM
Nc1ccc(C(=O)/C=C/c2cccc(F)c2)cc1 [Chalcone 3u] | 7.2 ± 0.6 | 8.8 ± 1.4 | 9.9 ± 0.3 | 15.6 | IC50 [3, 8]: 8.6 µM; IC50 [3, 9]: < 10 µM
COCOc1ccc(C=CC(=O)c2ccc(N)cc2)cc1OC [Chalcone 3h] | > 10 | > 10 | > 10 | – | activity against GSCs [3]: not active at concentrations tested
transferrin: transferrin alone, targeting ligand used in the conjugates | – | – | – | – | neurosphere formation (Glio38 [5]): neither c-dots or transferrin alone significantly reduced neurosphere formation; neurosphere formation (Glio3 [6]): neither c-dots or transferrin alone significantly reduced neurosphere formation
3,5-dimethoxy chalcone [Chalcone 3f] | – | – | – | – | IC50 (Glio9; MTS, ±SEM): 9.7 ± 2 µM; IC50 (Glio38 [1]; MTS, ±SEM): 6.5 ± 0.9 µM; IC50 (U87): 8.5 ± 0.04 µM; IC50 (Glio3 [2]; MTS, ±SEM): 7.8 ± 0.9 µM; IC50 [4]: 74.8 µM; IC50 ([3]; average of Glio3, Glio9, Glio38, read-out: average IC50 across the 3 GSC lines): 8.2 ± 0.8 µM
COc1cccc(/C=C/C(=O)c2ccc(O)cc2)c1OC [Chalcone 4a] | 14.2 ± 3 | 9.1 ± 0.7 | 11.4 ± 0.9 | > 10 | –
CN(C)c1ccc(/C=C/C(=O)c2ccc(N)cc2)cc1 [Chalcone 3n] | > 10 | > 10 | > 10 | – | activity against GSCs [3]: inactive at the concentrations tested
Nc1ccc(C(=O)/C=C/c2cccc(Cl)c2)cc1 [Chalcone 3v] | 5.8 ± 0.9 | 6.7 ± 0.6 | 9.1 ± 0.6 | 25.7 | IC50 [3, 8]: 7.2 µM; IC50 [3, 9]: < 10 µM
COc1cc(/C=C/C(=O)c2cccc(N)c2)cc(OC)c1OC [Chalcone 5a, 3′-Amino-3,4,5-trimethoxychalcone] | 5.1 ± 0.6 | 5 ± 0.8 | 8 ± 1.5 | 5.5 | –
COc1ccc(/C=C/C(=O)c2ccc(N)cc2)cc1OC [Chalcone 3b] | > 10 | > 10 | > 10 | – | –
Nc1ccc(C(=O)/C=C/c2ccoc2)cc1 [Chalcone 3s] | > 10 | > 10 | > 10 | – | –
Nc1ccc(C(=O)/C=C/c2ccc(O)cc2)cc1 [Chalcone 3i] | – | – | – | – | IC50 (Glio9; Homo sapiens): > 10 µM; IC50 (Glio38 [1]; Homo sapiens): > 10 µM; IC50 (Glio3 [2]; Homo sapiens): > 10 µM; activity against GSCs [3]: not active at concentrations tested
